Results taken from ChEMBL document CHEMBL1201862, “PubChem BioAssay data set” (2004).
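Protocol summary: plate cells (96-well), add compound at 5 concentrations, incubate 48 h, interpolate endpoints linearly. GI50 marks 50% less growth.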 Activity calls are given as the source filed them. Cut-off read from the data, not from the text of the source: active = GI50 up to about 1.1 µM and inactive = higher.

Experiments:
Experiment in all cases: growth of human tumour cells (NCI), 48 h
NCI-H460 = system: NCI-H460
EKVX = system: EKVX
UO-31 = system: UO-31
RXF 393 = system: RXF 393
SK-OV-3 = system: SK-OV-3
UACC-257 = system: UACC-257
U-251 = system: U-251
HT-29 = system: HT-29
UACC-62 = system: UACC-62
OVCAR-5 = system: OVCAR-5
RXF 631 = system: RXF 631
HOP-92 = system: HOP-92
CCRF-CEM = system: CCRF-CEM
SNB-78 = system: SNB-78
HOP-62 = system: HOP-62
HCT-116 = system: HCT-116
SK-MEL-28 = system: SK-MEL-28
KM12 = system: KM12
MOLT-4 = system: MOLT-4
SNB-19 = system: SNB-19
SF-295 = system: SF-295
NCI-H522 = system: NCI-H522
DMS-114 = system: DMS-114
IGROV-1 = system: IGROV-1
NCI-H23 = system: NCI-H23
OVCAR-8 = system: OVCAR-8
SR = system: SR
HL-60 = system: HL-60
A498 = system: A498
DMS-273 = system: DMS-273
M14 = system: M14
ACHN = system: ACHN
TK-10 = system: TK-10
A549 = system: A549
M19-MEL = system: M19-MEL
LXFL 529 = system: LXFL 529
SK-MEL-2 = system: SK-MEL-2
K562 = system: K562
DLD-1 = system: DLD-1
XF498 = system: XF498
COLO 205 = system: COLO 205
NCI-H226 = system: NCI-H226
HCT-15 = system: HCT-15
SNB-75 = system: SNB-75
SK-MEL-5 = system: SK-MEL-5
HOP-18 = system: HOP-18
SW-620 = system: SW-620
RPMI-8226 = system: RPMI-8226
HCC 2998 = system: HCC 2998
786-0 = system: 786-0
LOX IMVI = system: LOX IMVI
Malme-3M = system: Malme-3M
KM-20L2 = system: KM-20L2
SN12C = system: SN12C
OVCAR-3 = system: OVCAR-3
SF-539 = system: SF-539

## CCN(CC)CSc1nc2ccccc2o1
NCI-H460
  GI50: > 100 µM (inactive)
EKVX
  GI50: > 100 µM (inactive)
UO-31
  GI50: > 100 µM (inactive)
RXF 393
  GI50: > 100 µM (inactive)
SK-OV-3
  GI50: > 100 µM (inactive)
UACC-257
  GI50: > 100 µM (inactive)
U-251
  GI50: > 100 µM (inactive)
HT-29
  GI50: > 100 µM (inactive)
UACC-62
  GI50: > 100 µM (inactive)
OVCAR-5
  GI50: > 100 µM (inactive)
RXF 631
  GI50: > 100 µM (inactive)
HOP-92
  GI50: > 100 µM (inactive)
CCRF-CEM
  GI50: > 100 µM (inactive)
SNB-78
  GI50: > 100 µM (inactive)
HOP-62
  GI50: > 100 µM (inactive)
HCT-116
  GI50: > 100 µM (inactive)
SK-MEL-28
  GI50: > 100 µM (inactive)
KM12
  GI50: > 100 µM (inactive)
MOLT-4
  GI50: > 100 µM (inactive)
SNB-19
  GI50: > 100 µM (inactive)
SF-295
  GI50: > 100 µM (inactive)
NCI-H522
  GI50: > 100 µM (inactive)
DMS-114
  GI50: > 100 µM (inactive)
IGROV-1
  GI50: > 100 µM (inactive)
NCI-H23
  GI50: > 100 µM (inactive)
OVCAR-8
  GI50: > 100 µM (inactive)
SR
  GI50: > 100 µM (inactive)
HL-60
  GI50: > 100 µM (inactive)
A498
  GI50: > 100 µM (inactive)
DMS-273
  GI50: > 100 µM (inactive)
M14
  GI50: > 100 µM (inactive)
ACHN
  GI50: > 100 µM (inactive)
TK-10
  GI50: > 100 µM (inactive)
A549
  GI50: > 100 µM (inactive)
M19-MEL
  GI50: > 100 µM (inactive)

## CC(C)(C)C1CCC(O)(c2ccccc2)CC1 (centres undefined)
LXFL 529
  GI50: 78.2 µM (inactive)
NCI-H460
  GI50: > 100 µM (inactive)
SK-MEL-2
  GI50: > 100 µM (inactive)
EKVX
  GI50: > 100 µM (inactive)
UO-31
  GI50: > 100 µM (inactive)
K562
  GI50: 47.6 µM (inactive)
RXF 393
  GI50: 50.7 µM (inactive)
DLD-1
  GI50: > 100 µM (inactive)
XF498
  GI50: 1.97 µM (inactive)
SK-OV-3
  GI50: > 100 µM (inactive)
UACC-257
  GI50: 54.6 µM (inactive)
U-251
  GI50: 40.6 µM (inactive)
HT-29
  GI50: 74.3 µM (inactive)
UACC-62
  GI50: > 100 µM (inactive)
COLO 205
  GI50: > 100 µM (inactive)
NCI-H226
  GI50: > 100 µM (inactive)
OVCAR-5
  GI50: > 100 µM (inactive)
HCT-15
  GI50: 94.2 µM
SNB-75
  GI50: 86.7 µM (inactive)
CCRF-CEM
  GI50: 92.9 µM (inactive)
SNB-78
  GI50: > 100 µM (inactive)
HOP-62
  GI50: > 100 µM (inactive)
HCT-116
  GI50: 96.2 µM (inactive)
SK-MEL-28
  GI50: > 100 µM (inactive)
SK-MEL-5
  GI50: 38.3 µM (inactive)
KM12
  GI50: > 100 µM (inactive)
MOLT-4
  GI50: 59.8 µM (inactive)
SNB-19
  GI50: > 100 µM (inactive)
SF-295
  GI50: > 100 µM (inactive)
HOP-18
  GI50: > 100 µM (inactive)
NCI-H522
  GI50: 40.6 µM (inactive)
DMS-114
  GI50: 45.6 µM (inactive)
SW-620
  GI50: > 100 µM (inactive)
IGROV-1
  GI50: > 100 µM (inactive)
NCI-H23
  GI50: > 100 µM (inactive)
OVCAR-8
  GI50: 88.3 µM (inactive)
SR
  GI50: 33.4 µM (inactive)
RPMI-8226
  GI50: 47.8 µM (inactive)
HL-60
  GI50: 27.4 µM (inactive)
HCC 2998
  GI50: > 100 µM (inactive)
A498
  GI50: > 100 µM (inactive)
DMS-273
  GI50: > 100 µM (inactive)
M14
  GI50: 71.8 µM (inactive)
ACHN
  GI50: > 100 µM (inactive)
TK-10
  GI50: > 100 µM (inactive)
A549
  GI50: > 100 µM (inactive)
786-0
  GI50: 63.2 µM (inactive)
LOX IMVI
  GI50: 77.6 µM (inactive)
Malme-3M
  GI50: > 100 µM (inactive)
KM-20L2
  GI50: > 100 µM (inactive)
SN12C
  GI50: 69.5 µM (inactive)
M19-MEL
  GI50: > 100 µM (inactive)
OVCAR-3
  GI50: 70.1 µM (inactive)
SF-539
  GI50: > 100 µM (inactive)
